Patent publication US10272110B2, “Methods for promoting HSC engraftment” (CHILDREN'S MEDICAL CENTER CORPORATION, priority 2006, dated 2019)
Where two headings read alike, the source gives them in different places.

Tested on: runx1/cmyb+ AGM HSCs
Conditions: for Effect on HSC expression (# embryos altered/# embryos scored): runx1/cmyb+ HSCs, zebrafish embryos
Experimental: A chemical genetic screen was conducted to identify novel pathways that modulate definitive HSC formation during zebrafish embryogenesis. FIG. 1. Genes such as runx1 and cmyb, required for HSC development during mammalian hematopoiesis, are expressed in the ventral wall of the dorsal aorta in a region analogous to the mammalian AGM at thirty-six hours post-fertilization (hpf). […] Wild-type embryos were incubated with individual compounds from the three-somite stage until thirty-six hpf. Probes for runx1 and cmyb were combined and utilized to detect HSCs by in situ hybridization.
Wild-type age-matched embryos were arrayed into 48-well plates (˜5 embryos/well) of individual test compounds and exposed from 3-somites until 36 hpf. […] In situ hybridization for runx1 and cmyb was performed to assess HSCs. Compounds were retested at 10 μM, 20 μM, and 50 μM. Stem cell specificity was assessed using flk1 at 36 hpf. PGE2, PGI2, dmPGE2 and all cox inhibitors (Sigma) were used at 10 μM to 20 μM.
Qualitative scoring (# embryos with altered HSCs/# scored) of runx1/cmyb was conducted using the following criteria: Normal/unchanged=continuous line of runx1/cmyb+ endothelial cells and occasional hematopoietic clusters. Decreased/absent=reduction in runx1/cmyb+ cells, including the presence of large gaps in the line of HSCs, isolated positive cells, or absence of expression. Increased/excess=enhancement in runx1/cmyb^+ cells, including many HSC clusters, a thickened line of HSCs, or ectopic expression.

[1] = exposure from three somites to 36 hpf, runx1/cmyb staining

| Compound | effect on AGM HSCs in zebrafish embryos (in words) [1] | other results |
| --- | --- | --- |
| CC(C)NCC(O)COc1ccc(CC(N)=O)cc1 (stereo not shown) [Atenolol] | heightened production of AGM stem cells |  |
| CCCCCCCC/C=C\C/C=C\C/C=C\CCCC(=O)O [Mead Acid] | upregulated HSC formation | Effect on HSC expression (# embryos altered/# embryos scored) (Table 1, 36 hpf): Increase (24/32) |
| N#CC(=C(/N)Sc1ccccc1N)/C(C#N)=C(\N)Sc1ccccc1N [U0126] |  | effect on AGM HSCs in zebrafish embryos (in words) (zebrafish, in vivo): inhibit HCS |
| CCCC(CCC)C(=O)O [Valproic Acid] | inhibit HCSs |  |
| [Cl-].[Li+] [lithium chloride] | HSC enhancers |  |
| CCCc1c(OCCCCc2nnn[nH]2)ccc(C(C)=O)c1O [Ly-171883] |  | Effect on HSC expression (# embryos altered/# embryos scored) (Table 1, 36 hpf): Increase (17/26) |
| CCCCC1(COC(=O)CCC(=O)O)C(=O)N(c2ccccc2)N(c2ccccc2)C1=O [Suxibuzone] |  | Effect on HSC expression (# embryos altered/# embryos scored) (Table 2, 36 hpf): Decrease (16/30) |
| CCCCC[C@H](O)/C=C/[C@@H]1[C@H]2C/C(=C/CCCC(=O)O)O[C@H]2C[C@H]1O [PGI2] | increase moderately | increased runx1/cmyb expression (# embryos altered/# scored) (20 μM, 36 hpf): 28/47 |
| O=C(O)CCC(=O)c1ccc(-c2ccccc2)cc1 [Fenbufen] | decreased HSCs | Effect on HSC expression (# embryos altered/# embryos scored) (Table 2, 36 hpf): Decrease (20/26) |
| O=C1Cc2c([nH]c3ccc(Br)cc23)-c2ccccc2N1 [Kenpaullone] | inhibit HCSs |  |
| CCCCCCOC(=O)[C@]1(O)C[C@@H]2O[C@@]1(C)n1c3ccccc3c3c4c(c5c6ccccc6n2c5c31)C(=O)NC4 [KT5720] | inhibit HCS |  |
| CCCCC[C@H](O)/C=C/[C@H]1C(=O)C=C[C@@H]1C/C=C\CCCC(=O)O [Prosteglandin J2] |  | Effect on HSC expression (# embryos altered/# embryos scored) (Table 2, 36 hpf): Decrease (12/22) |
| Cc1ccc(-c2cc(C(F)(F)F)nn2-c2ccc(S(N)(=O)=O)cc2)cc1 [Celecoxib] |  | decreased runx1/cmyb+ HSCs (# embryos altered/# scored) (20 μM, 36 hpf): 26/31 |
| CC(=O)Oc1ccccc1C(=O)O [Aspirin] | reduced stem cells in the aorta |  |
| O=S(=O)(NCCNC/C=C/c1ccc(Br)cc1)c1cccc2cnccc12 [H89] | inhibit HCS |  |
| CCCCC[C@H](O)/C=C/[C@@H]1[C@@H](C/C=C\CCCC(=O)O)[C@@H](O)C[C@H]1O [PGF2] | no effect |  |
| CC1=C(CC(=O)O)c2cc(F)ccc2/C1=C\c1ccc([S+](C)[O-])cc1 (stereo not shown) [Sulindac] |  | Effect on HSC expression (# embryos altered/# embryos scored) (Table 2, 36 hpf): Decrease (18/31) |
| O=C1Nc2cc(Br)ccc2/C1=C1/Nc2ccccc2/C1=N\O [BIO] | HSC enhancers |  |
| CCCCCC1OC1C/C=C\C/C=C\C/C=C\CCCC(=O)O (stereo not shown) [Epoxyeicosatrienoic Acid] |  | Effect on HSC expression (# embryos altered/# embryos scored) (Table 1, 36 hpf): Increase (17/25) |
| COc1cccc(-c2cc(=O)c3ccccc3o2)c1N [PD9805] | inhibit HCS |  |
| C[C@]12CC[C@H]3[C@@H](CC[C@]4(O)C[C@@H](O)CC[C@]34C=O)[C@@]1(O)CC[C@@H]2C1=CC(=O)OC1 [Strophanthidin] | increases AGM stem cells |  |
| CCCCC[C@H](O)/C=C/C=C\CCCCCCCC(=O)O [13(S)-HODE] |  | Effect on HSC expression (# embryos altered/# embryos scored) (Table 1, 36 hpf): Increase (15/25) |
| CCCCC[C@H](O)/C=C/[C@H]1[C@H](O)CC(=O)[C@@H]1C/C=C/CCCC(=O)O (relative stereo) [5-trans PGE2] |  | toxicity in zebrafish embryo screen (Table 4): toxic |
| CC(C)Cc1ccc(C(C)C(=O)O)cc1 (stereo not shown) [Ibuprofen] | reduced stem cells in the aorta |  |
| COc1ccc2cc([C@H](C)C(=O)O)ccc2c1 [Naproxen] | reduced stem cells in the aorta |  |
